From US4442093A, “Method for administering 24,25-dihydroxycholecalciferol to persons suffering from hypercalcemia” (Kureha Kagaku Kogyo Kabushiki Kaisha, priority 1981, dated 1984)

Experiments:
[1] = 30-day repeated oral administration toxicity (Example 26); assay type: in vivo, ICR mouse; conditions: 10 to 1000 µg/kg/day p.o., 30 days
Experimental: 24R,25-(OH)2 -D3 was dissolved in Panacete® 810 containing 1% by weight of ethanol, and the solution was forcibly p.o. administered once a day for 30 continuous days to each male or female ICR mouse of the groups shown in Table 20 at each one of the daily dose rates also shown in Table 20.
As the control, Panacete 810 was solely and forcibly p.o. administered to the mice of the same strain once a day for 30 continuous days.

[2] = tested on: lymphocytes from a healthy person; assay: Effect of plasma of treated renal failure/uremia patients on blastoid-transformation of lymphocytes from a healthy person (Example 14); assay type: cell-based, human; conditions: 0.5 to 1.0 µg/day oral, 1 to 6 months
Description: Effects of plasma derived from a patient suffering from chronic renal failure or uremia treated with the present compound or not treated therewith on blastoid-transformation of lymphocytes from a healthy person Heparinized fresh peripheral blood of a normal person was mixed with Ficoll-Paque solution, and after subjecting the mixture to ultracentrifugal separation, the layer of lymphocyte was collected, and after washing the layer three times with phosphate buffer solution, the washed lymphocytes were dispersed in suspension in RPMI-1640 culture medium (liquid) at a concentration of 6×10^5 cells/ml. […] Then, the specimen was harvested to determine the uptake of ^3 H-TdR by the lymphocytes. In addition, the plasma of each patient was collected two times, namely, once before hemodialysis and once after hemodialysis, and accordingly the total patient system of the present test consists of two large groups one of which is administered and the other of which is not administered with the compound, and each large group consists of two groups one of which is not yet hemodialysed and the other of which has been already hemodialysed.

[3] = tested on: blood sugar level; assay: Blood sugar in patients (Example 23); assay type: in vivo, human
Experimental: Three patients shown in Table 17 were treated by oral administration of a daily dose of 4 to 6 micrograms of 24R,25-(OH)2 -D3 in a form of the soft capsule composition obtained in Example 6 for 3 continuous weeks. After the completion of administration, the patient was fasted for a night and their blood specimen was collected at 11:00 a.m. in the next morning.
Effectiveness of reducing blood sugar level (ERBS) is calculated from the […]

[4] = tested on: inorganic phosphate in serum; assay: Serum inorganic phosphate in chronic renal failure patients without hemodialysis (Example 20); assay type: in vivo, human
Experimental: Eight patients suffering from chronic renal failure and not being subjected to hemodialysis shown in Table 14 were treated by oral daily administration of 24R,25-(OH)2 -D3 in a form of the soft capsule composition obtained in Example 6 at a daily dose of 2 to 10 micrograms for 8 weeks. The concentration of inorganic phosphate in the serum of each patient before the above-mentioned administration and that after completion of the above-mentioned administration for 8 weeks were determined by the Molybdenum Blue method, the results being shown in Table 14.

[5] = tested on: inorganic phosphate in serum; assay: Serum inorganic phosphate in chronic renal failure patients under hemodialysis (Example 21); assay type: in vivo, human
Experimental: Eight patients suffering from chronic renal failure under the treatment of hemodialysis two times a week while using a dialysate containing 9 to 10 mg/dl of calcium component were further treated by oral administration of 24R,25-(OH)2 -D3 in a form of the soft capsule composition obtained in Example 6 at a daily dose of 2 to 10 micrograms for 6 weeks, and the concentration of inorganic phosphate in the serum of each patient before the commencement of the administration and that after completion of the administration were determined by Molybdenum Blue method.

[6] = tested on: calcium level in serum; assay: Serum calcium in rats transplanted with Walker-carcinosarcoma 256 (Example 5); assay type: in vivo, Sprague-Dawley rat
Experimental: After injecting 0.5 ml of ascites of Walker-carcinosarcoma 256 adjusted to contain 2×10^6 tumour cells per microliter into the upper part of the right thigh of a Sprague-Dawley rat of body weight of 90-140 g, a solution of 24R,25-(OH)2 -D3 in the triglyceride ester used in Example 1 at a concentration of 0.5 microgram/100 microliter was orally administered once a day for continuous 7 days at a daily dose rate of 20 micrograms of 24R,25-(OH)2 -D3 per kg body weight of the rat. […] The blood specimen was also collected in the same manner from a rat of the same strain injected with the ascites in the same manner as in the first rat, however, only administered with the triglyceride ester. The two levels of calcium in the respective sera of the two groups were compared in Table 5.

[7] = tested on: magnesium level in serum; assay: Serum magnesium in hypermagnesemic chronic renal failure patients (Example 17); assay type: in vivo, human; conditions: for Magnesium level in serum after administration: 10 days; for Magnesium level in serum before administration: baseline
Experimental: To the three patients of chronic renal failure showing the hypermagnesemic symptoms of nearly the same extent to each other, 24R,25-(OH)2 -D3 was orally administered in a form of soft capsule composition prepared in Example 6 at a daily dose of 2 to 5 micrograms for continuous 10 days. Magnesium level in their serum was determined before and after the administration following the ordinary method.

[8] = average of 3 patients, 4 to 6 µg/day oral, 3 weeks
[9] = person fourteen, 4 µg/day oral, 3 weeks
[10] = person nineteen, 6 µg/day oral, 3 weeks
[11] = person seven, 6 µg/day oral, 3 weeks
[12] = average of 8 patients, baseline

C=C1CC[C@H](O)C/C1=C/C=C1\CCC[C@]2(C)[C@@H]([C@H](C)CC[C@@H](O)C(C)(C)O)CC[C@@H]12 [24R,25-(OH)2 -D3]
histopathological examination of organs [1]: no abnormal findings were obtained | body weight ([1]; all groups): no significant difference of body weight was observed | weights of internal organs ([1]; all groups): not significantly different | Uptake of 3H-TdR in the presence of lectin from kidney beans ([2]; after hemodialysis): 222480 ± 21253 cpm | Uptake of 3H-TdR in the presence of lipopolysaccharide ([2]; after hemodialysis): 129984 ± 51385 cpm | Uptake of 3H-TdR in the presence of lectin from kidney beans ([2]; before hemodialysis): 228906 ± 19081 cpm | Uptake of 3H-TdR in the presence of lipopolysaccharide ([2]; before hemodialysis): 158950 ± 48245 cpm | Blood sugar level after administration, average [3, 8]: 129.7 ± 9.1 mg/dL | Effectiveness in reducing blood sugar level, average [3, 8]: 86.2% | Blood sugar level before administration, average ([3]; average of 3 patients, baseline): 182 ± 13.5 mg/dL | Blood sugar level after administration [3, 9]: 120 mg/dL | Effectiveness in reducing blood sugar level [3, 9]: 100% | Blood sugar level before administration ([3]; person fourteen, baseline): 168 mg/dL | Blood sugar level after administration [3, 10]: 138 mg/dL | Effectiveness in reducing blood sugar level [3, 10]: 76% | Blood sugar level before administration ([3]; person nineteen, baseline): 195 mg/dL | Blood sugar level after administration [3, 11]: 131 mg/dL | Effectiveness in reducing blood sugar level [3, 11]: 82.5% | Blood sugar level before administration ([3]; person seven, baseline): 183 mg/dL | Concentration of inorganic phosphate after administration, average ([4]; average of 8 patients, 2 to 10 µg/day, 8 weeks): 4.60 ± 0.66 mg/dL | Concentration of inorganic phosphate before administration, average [4, 12]: 6.24 ± 0.53 mg/dL | Concentration of inorganic phosphate after administration ([4]; patient 1 (person six), 10 µg/day, 8 weeks): 5.5 mg/dL | Concentration of inorganic phosphate before administration ([4]; patient 1 (person six), baseline): 7.2 mg/dL | Concentration of inorganic phosphate after administration ([4]; patient 2 (person sixteen), 6 µg/day, 8 weeks): 4.7 mg/dL | Concentration of inorganic phosphate before administration ([4]; patient 2 (person sixteen), baseline): 6.3 mg/dL | Concentration of inorganic phosphate after administration ([4]; patient 3 (person four), 4 µg/day, 8 weeks): 4.7 mg/dL | Concentration of inorganic phosphate before administration ([4]; patient 3 (person four), baseline): 5.9 mg/dL | Concentration of inorganic phosphate after administration ([4]; patient 4 (person twelve), 8 µg/day, 8 weeks): 4.9 mg/dL | Concentration of inorganic phosphate before administration ([4]; patient 4 (person twelve), baseline): 6.5 mg/dL | Concentration of inorganic phosphate after administration ([4]; patient 5 (person twenty), 6 µg/day, 8 weeks): 5.3 mg/dL | Concentration of inorganic phosphate before administration ([4]; patient 5 (person twenty), baseline): 6.6 mg/dL | Concentration of inorganic phosphate after administration ([4]; patient 6 (person three), 4 µg/day, 8 weeks): 3.8 mg/dL | Concentration of inorganic phosphate before administration ([4]; patient 6 (person three), baseline): 5.8 mg/dL | Concentration of inorganic phosphate after administration ([4]; patient 7 (person one), 2 µg/day, 8 weeks): 3.7 mg/dL | Concentration of inorganic phosphate before administration ([4]; patient 7 (person one), baseline): 5.5 mg/dL | Concentration of inorganic phosphate after administration ([4]; patient 8 (person ten), 6 µg/day, 8 weeks): 4.2 mg/dL | Concentration of inorganic phosphate before administration ([4]; patient 8 (person ten), baseline): 6.1 mg/dL | inorganic phosphate level in serum ([4]; patient of chronic renal failure, normal level 2.5 to 5.5 mg/dl): significantly reduced to the normal level | metastatic calcification (roentgenographic examination) ([5]; all patients, after completion of the administration): metastatic calcification was not recognized | Concentration of inorganic phosphorus after administration, average ([5]; average of 8 patients, 2 to 10 µg/day, 6 weeks): 4.36 ± 0.76 mg/dL | Concentration of inorganic phosphorus before administration, average [5, 12]: 6.63 ± 0.77 mg/dL | osteomalacia (bone biopsy) ([5]; one patient, after completion of the administration): improvement of osteomalacia was confirmed | Concentration of inorganic phosphorus after administration ([5]; patient 1 (person fifteen), 8 µg/day, 6 weeks): 4.9 mg/dL | Concentration of inorganic phosphorus before administration ([5]; patient 1 (person fifteen), baseline): 7.2 mg/dL | Concentration of inorganic phosphorus after administration ([5]; patient 2 (person one), 6 µg/day, 6 weeks): 4.7 mg/dL | Concentration of inorganic phosphorus before administration ([5]; patient 2 (person one), baseline): 6.7 mg/dL | Concentration of inorganic phosphorus after administration ([5]; patient 3 (person five), 10 µg/day, 6 weeks): 5.2 mg/dL | Concentration of inorganic phosphorus before administration ([5]; patient 3 (person five), baseline): 8.0 mg/dL | Concentration of inorganic phosphorus after administration ([5]; patient 4 (person nine), 4 µg/day, 6 weeks): 4.2 mg/dL | Concentration of inorganic phosphorus before administration ([5]; patient 4 (person nine), baseline): 5.8 mg/dL | Concentration of inorganic phosphorus after administration ([5]; patient 5 (person eleven), 8 µg/day, 6 weeks): 5.3 mg/dL | Concentration of inorganic phosphorus before administration ([5]; patient 5 (person eleven), baseline): 7.1 mg/dL | Concentration of inorganic phosphorus after administration ([5]; patient 6 (person eighteen), 6 µg/day, 6 weeks): 3.5 mg/dL | Concentration of inorganic phosphorus before administration ([5]; patient 6 (person eighteen), baseline): 6.3 mg/dL | Concentration of inorganic phosphorus after administration ([5]; patient 7 (person eight), 2 µg/day, 6 weeks): 3.5 mg/dL | Concentration of inorganic phosphorus before administration ([5]; patient 7 (person eight), baseline): 5.8 mg/dL | Concentration of inorganic phosphorus after administration ([5]; patient 8 (person thirteen), 6 µg/day, 6 weeks): 3.6 mg/dL | Concentration of inorganic phosphorus before administration ([5]; patient 8 (person thirteen), baseline): 6.1 mg/dL | inorganic phosphate level in serum ([5]; patient of chronic renal failure given hemodialysis): significant reduction of the inorganic phosphate level in their serum to the normal level | Calcium level in serum after one week of transplantation ([6]; 20 µg/kg/day oral, 7 days): 11.2 ± 0.6 mg/dL | Calcium level in serum before transplantation ([6]; before transplantation (baseline)): 10.5 ± 0.3 mg/dL | Magnesium level in serum after administration ([7]; patient A, 5 µg/day): 2.0 mg/dL | Magnesium level in serum before administration ([7]; patient A): 4.2 mg/dL | Magnesium level in serum after administration ([7]; patient B, 2 µg/day): 2.1 mg/dL | Magnesium level in serum before administration ([7]; patient B): 4.0 mg/dL | Magnesium level in serum after administration ([7]; patient C, 5 µg/day): 1.9 mg/dL | Magnesium level in serum before administration ([7]; patient C): 4.3 mg/dL
